Source: patent publication US20250000818A1, “NEW SYNERGISTIC COMBINATIONS BASED ON FENM AND AN ACETYLCHOLINESTERASE INHIBITOR” (REST Therapeutics, priority 2021, published 2025)

Experiments:
[1] = system: mice intoxicated with Aβ25-35 oligomers; assay: Y-labyrinth spontaneous alternation test (YMT), short-term spatial working memory, Aβ25-35 oligomer ICV intoxication model; type: in vivo, male Swiss OF-1 mice
Method: (§1) In vivo experiments were conducted on male Swiss OF-1 mice (January, St Berthevin, France) aged 7 to 9 weeks with a mass of 32±2 g. The animals are housed in groups of 8 to 10 individuals in plastic cages with free access to food and drink, in a controlled environment (12:00 day/night cycle, the light is switched on at 7:00 a.m. and the behavioral experiments take place between 9:00 a.m. and 5:00 p.m.), under controlled atmosphere and sound environment.
The stock solutions of the compounds were obtained by dissolution in NaCl buffer (0.9%, vehicle) at a concentration of 2 mg/mL which corresponds to a dose of 5 mg/Kg. These stock solutions are stored at 4° C. for 2 weeks maximum.
(§2) The vehicle solution or the control peptide are subjected to the same treatment before administration.
The compounds are IP administered in a volume of 100 μL per 20 g of body mass. […] The doses of compounds mentioned in the experimental part correspond to the doses of salts of the used compounds and not to the mass equivalent of the compound itself. For each compound, the administered doses are 0.01, 0.03, 0.1, 0.3 and 1 mg/kg. In the case of the combination, the co-administered doses of donepezil and FENM were 0.03 and 0.01 mg/kg, respectively.
(§3) The ability of the compounds and their combination to decrease the cognitive symptoms of neurodegeneration induced by the Aβ25-35 oligomers is tested. For this purpose, the administration of the test compounds takes place on the same day as the injection of the Aβ25-35 oligomers and continues on a daily basis until day 7 after the injection of the Aβ25-35 oligomers; the mice are then subjected to YMT tests, or PAT on day 8 after the injection of the Aβ25-35 oligomers.
The spontaneous alternation test is used to study the (very short-term) spatial working memory in rodents. The labyrinth is made of opaque gray polyvinyl chloride (PVC). Each arm is 40 cm long, 13 cm high and 3 cm wide at its base and 10 cm at its top. The arms converge towards one another, with an equal angle between the different arms. In brief, each mouse is placed at the end of an arm and left free to move for an 8-minute session. The mouse entries in each of the arms, including the arm at which it was dropped, are recorded. An alternation is defined as the successive entry of the animal into three different arms.
The animal data showing extreme behaviors (percentage of alternation <20% or >90%) are not taken into account in the calculations. The attrition rate is usually 5%. Under normal conditions, a mouse will spontaneously alternate the explorations of each arm. A mouse with impaired memory and/or orientation capabilities will have its alternation percentage decreased.
Data were analyzed using unidirectional variance analyses (ANOVA, F-value), followed by a Dunnett test or non-parametric Kruskal-Wallis ANOVA (H-value) followed by a Dunn comparison test. The statistical significance levels are p<0.05, p<0.01 and p<0.001.

[2] = system: mice intoxicated with Aβ25-35 oligomers; assay: Passive avoidance test (PAT), long-term contextual memory, Aβ25-35 oligomer ICV intoxication model; type: in vivo, male Swiss OF-1 mice
Method: as §1
FENM was obtained from M2i Life Sciences (Saint-Cloud, France). The stock solutions of the compounds were obtained by dissolution in NaCl buffer (0.9%, vehicle) at a concentration of 2 mg/mL which corresponds to a dose of 5 mg/Kg. These stock solutions are stored at 4° C. for 2 weeks maximum.
as §2
The compounds are IP administered in a volume of 100 μL per 20 g of body mass. […] The doses of compounds mentioned in the experimental part correspond to the doses of salts of the used compounds and not to the mass equivalent of the compound itself. For each compound, the administered doses are 0.01, 0.03, 0.1, 0.3 and 1 mg/kg.
as §3
This test measures the long-term non-space (contextual) memory. The device used for this test is a box with two compartments (15×20×15 cm high), one illuminated with white PVC walls and the other in the dark with black PVC walls and a mesh floor. A guillotine door separates the compartments. A 60 W lamp is positioned 40 cm above the box and illuminates the white compartment. Electrical shocks (0.3 mA for 3 s) may be applied to the grid floor via a generator (Lafayette Instruments, Lafayette, USA). The test consists of a learning session and a test session. The guillotine door is closed during the training session. Each mouse is placed in the white compartment. After 5 seconds, the door is raised. When the mouse enters the dark compartment so that its four legs are in contact with the mesh, the door closes and electrical discharges are applied for 3 seconds. The time taken by the mouse to enter the dark compartment (STL-Tg) and the level of shock sensitivity (0=no sign; 1=surges; surge and vocalizes) are recorded. The test session is performed 24 hours after the learning session. Each mouse is placed back in the illuminated white compartment. After 5 seconds, the door is raised, the latency time (STL-R), i.e. the time it takes the mouse to go into the dark compartment, is measured. The maximum time is 300 seconds.

With NC12CC3CC(C1)CC(CCF)(C3)C2.OBr [FENM, 3 (2-Fluoroethyl)tricyclo[3.3.1.13,7]decan-1-amine bromohydrate] the “effect on percentage of alternation of intoxicated mice” value ([1]; 0.01 mg/kg) was “at the limit of statistical significance”, the “PP (%) percentage protection” value ([1]; 0.01 mg/kg IP daily to day 7, 100% = non-intoxicated vehicle, 0% = Aβ25-35/vehicle) was 38.5 ± 31.9% and the “effect on percentage of alternation of intoxicated mice” value ([1]; 0.03 mg/kg) was “significantly improves the percentage of alternation”. For the same molecule, the “PP (%) percentage protection” value ([1]; 0.03 mg/kg IP) was 58.4 ± 20.8%, the “PP (%) percentage protection” value ([1]; 0.1 mg/kg IP) was 71.2 ± 33.3 % and the “PP (%) percentage protection” value ([2]; 0.01 mg/kg IP) was 1.4 ± 18.3%. For the same molecule, the “PP (%) percentage protection” value ([2]; 0.03 mg/kg IP) was −12.2 ± 16.8 %, the “PP (%) percentage protection” value ([2]; 0.1 mg/kg IP) was 27.8 ± 24.8% and the “PP (%) percentage protection” value ([2]; 0.3 mg/kg IP) was 52.9 ± 14.2 %. The “effect on passive avoidance performance (latency) of intoxicated mice” value ([2]; 0.3 mg/kg or 1 mg/kg IP) was “performances that are not significantly different from the control, non-intoxicated, untreated mice” and the “effect on passive avoidance performance (latency) of intoxicated mice” value ([2]; doses lower than 0.3 mg/kg) was “does not protect mice from mnesic disorders”.
